These results are taken from PMC6095626, “Screening of the Pathogen Box for inhibitors with dual efficacy against Giardia lamblia and Cryptosporidium parvum” (PLoS Neglected Tropical Diseases, 2018).

As usually defined, the EC50 is the concentration that produces a half-maximal response.

Assay [1] deals with C. parvum (UGA1 Nluc expressing strain in HCT-8 cells). Kind of assay: microbe, parasite or virus in culture. The assay is classed as cell-based, Cryptosporidium parvum. To be noted: for Crypto (10 uM) Mean % inhibition: initial Pathogen Box screen, single concentration 10 µM, inhibition compared to DMSO wells. In outline:
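HCT-8 monolayers grown 48 h to 90–100% confluence, treated with compound at 10 μM or serial dilutions, then infected with bleach-treated UGA1 Nluc C. parvum oocysts.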

The subject of assay [2] is G. lamblia trophozoites (luciferase expressing, WBC6). Kind of assay: microbe, parasite or virus in culture. The assay is classed as cell-based, Giardia lamblia. The conditions noted are these: initial Pathogen Box screen, single concentration 16 µM, inhibition compared to DMSO wells. The method in brief: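 Luciferase-expressing WBC6 trophozoites plated at 250,000 cells/mL, compounds added 1:1, incubated anaerobically (GasPak bags) at 37 °C for 24 h; viability read by bioluminescence, with duplicate plates counted on a MOXI Z cell counter. Metronidazole control serially diluted 1:2 from 40 μM.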

For `N#Cc1nc(-c2ccccc2F)oc1NCCc1ccccc1` [MMV676384], in assay [1], the “Crypto (10 uM) Mean % inhibition” value was determined as 40%. Further, the “Giardia (16 uM) Mean % inhibition” value in assay [2] was 21%.
Consider `Cc1cccc(Cn2ccc(NC(=O)c3ccc4c(c3)OCO4)n2)c1` [MMV676386], for which the “Crypto (10 uM) Mean % inhibition” value in assay [1] stood at 53%. Besides, in assay [2], the “Giardia (16 uM) Mean % inhibition” value is 57%.
As to `COc1cccc(-n2nnnc2S(=O)(=O)Cc2ccccc2)c1` [MMV676388], the “Crypto (10 uM) Mean % inhibition” value in assay [1] is 67%. For the same compound, the “Giardia (16 uM) Mean % inhibition” value in assay [2] is 38%.
For the compound `O=C(c1n[nH]c2c1CCCC2)N1CCN(Cc2ccc3c(c2)OCO3)CC1` [MMV676389], in assay [1], the “Crypto (10 uM) Mean % inhibition” value is recorded as “X* (Mean or standard deviation are negative but not significantly different from the control to be a growth promoter)”. Further, in assay [2], the “Giardia (16 uM) Mean % inhibition” value is on record as 66%.
Take `CCS(=O)(=O)N(Cc1ccco1)Cc1cc2ccc(C)cc2[nH]c1=O` [MMV676398]: the “Crypto (10 uM) Mean % inhibition” value in assay [1] is “X* (Mean or standard deviation are negative but not significantly different from the control to be a growth promoter)”. The “Giardia (16 uM) Mean % inhibition” value in assay [2] was found to be 22%.
Take `c1coc(CNc2nc(N3CCCCC3)nc3ccccc23)c1` [MMV676401]: the “Crypto (10 uM) Mean % inhibition” value in assay [1] is reported as 48%. Moreover, the “Giardia (16 uM) Mean % inhibition” value in assay [2] was determined as 76%.
The like results for `CC(C)n1ncc2c(C(=O)NCC(c3cccs3)N3CCOCC3)cc(-c3ccccc3)nc21` (stereo not shown) [MMV676406] were, in that order, “X* (Mean or standard deviation are negative but not significantly different from the control to be a growth promoter)” and 34%.
The like results for `O=C(COc1cccc(F)c1)Nc1nc(-c2ccccn2)cs1` [MMV676409] were, in that order, 67% and “X* (Mean or standard deviation are negative but not significantly different from the control to be a growth promoter)”.
Turning to `CC(Oc1ccccc1)C(=O)Nc1nc(-c2ccccn2)cs1` (stereo not shown) [MMV676411], the “Crypto (10 uM) Mean % inhibition” value in assay [1] came out at 86%. For the same compound, the “Giardia (16 uM) Mean % inhibition” value in assay [2] was 16%.
Regarding `N#Cc1nc(-c2ccccc2)oc1S(=O)(=O)c1ccc(Cl)cc1` [MMV676412], in assay [1], the “Crypto (10 uM) Mean % inhibition” value is 77%. For the same compound, the “Giardia (16 uM) Mean % inhibition” value in assay [2] is recorded as 49%.
`Cc1ccc(NC(=O)CC2COc3ccccc3O2)cc1Cl` (stereo not shown) [MMV676431]: the “Crypto (10 uM) Mean % inhibition” value in assay [1] was “X* (Mean or standard deviation are negative but not significantly different from the control to be a growth promoter)”. For the same compound, the “Giardia (16 uM) Mean % inhibition” value in assay [2] turned out to be 18%.
On the same counts, the results for `Cc1ccc2nc(Cl)c(CNCc3cccs3)cc2c1` [MMV676439] are 81% and 70%.
The like results for `CC(C)c1ncc(-c2ccncc2)c(C2CCC(CNC(=O)c3cccnc3)CC2)n1` (stereo not shown) [MMV676442] were, in that order, 74% and 12%.
The like results for `O=C(NC1CCCCC1)N1CCN(Cc2ccc3c(c2)OCO3)CC1` [MMV676444] were, in that order, 67% and 30%.
For `CCCn1c(CNc2ccccc2O)nc2ccccc21` [MMV676445], the “Crypto (10 uM) Mean % inhibition” value in assay [1] was “X* (Mean or standard deviation are negative but not significantly different from the control to be a growth promoter)”. In assay [2], the “Giardia (16 uM) Mean % inhibition” value was 13%.
`CCc1nc2ccccc2n1CC(O)COc1cc(C)ccc1Cl` (stereo not shown) [MMV676449]: the “Crypto (10 uM) Mean % inhibition” value in assay [1] came to 37%. For the same compound, in assay [2], the “Giardia (16 uM) Mean % inhibition” value was found to be 46%.
On the same counts, the results for `CCOC(=O)c1cc(-c2csc(Nc3c(C)cc(C)cc3C)n2)on1` [MMV676461] are 76% and 31%.
The like results for `NC(CC(=O)c1ccc(Cl)cc1Cl)C(Cl)(Cl)Cl` (stereo not shown) [MMV676468] were, in that order, “X* (Mean or standard deviation are negative but not significantly different from the control to be a growth promoter)” and 55%.
On the same counts, the results for `CCOc1ccc(OCC(=O)Nc2cc(C)cc(C)c2)cc1` [MMV676470] are “X* (Mean or standard deviation are negative but not significantly different from the control to be a growth promoter)” and 12%.
Consider `COc1cccc(OC)c1C(=O)Nc1ccc(Cl)c(-c2nc3ccccc3s2)c1` [MMV676472], for which the “Crypto (10 uM) Mean % inhibition” value in assay [1] is “X* (Mean or standard deviation are negative but not significantly different from the control to be a growth promoter)”. Besides, the “Giardia (16 uM) Mean % inhibition” value in assay [2] is 28%.
On the same counts, the results for `COc1ccccc1OCCCCn1c(C2CC2)nc2ccccc21` [MMV676474] are “X* (Mean or standard deviation are negative but not significantly different from the control to be a growth promoter)” and 3.27%.
On to `Cc1cc(C)cc(COc2ccc3c(C)c(CCC(=O)O)c(=O)oc3c2C)c1` [MMV676476], for which the “Crypto (10 uM) Mean % inhibition” value in assay [1] is given as “X* (Mean or standard deviation are negative but not significantly different from the control to be a growth promoter)”. Also, in assay [2], the “Giardia (16 uM) Mean % inhibition” value is 35%.
For the compound `CCc1c(C)nc(-n2nc(C)cc2NC(=O)c2ccccc2SC)[nH]c1=O` [MMV676477], in assay [1] (10 μM, 48 hours), the “C. parvum cell growth inhibition in the initial screen” value was not below 95%. In addition, the EC50 in assay [1] (Nluc C. parvum in HCT-8 cells, 48 hours, read-out: C. parvum EC50) came out at 220 nM. In assay [1], the “Crypto (10 uM) Mean % inhibition” value is 96%. In addition, the “Giardia (16 uM) Mean % inhibition” value in assay [2] worked out at 28%.
With `O=C(C1CCN(c2nnc(-n3cccc3)s2)CC1)N1CCC(Cc2ccccc2)CC1` [MMV676478], in assay [1], the “Crypto (10 uM) Mean % inhibition” value was “X* (Mean or standard deviation are negative but not significantly different from the control to be a growth promoter)”. For the same compound, in assay [2], the “Giardia (16 uM) Mean % inhibition” value worked out at 9%.
On the same counts, the results for `COC(=O)c1c(NC(=O)c2cc3ccccc3oc2=O)sc2c1CCN(Cc1ccccc1)C2` [MMV676480] are 63% and 7%.
For `O=C(Nc1n[nH]c(=S)s1)c1cc(Br)ccc1Cl` [MMV676492], the “Crypto (10 uM) Mean % inhibition” value in assay [1] is 57%. In addition, the “Giardia (16 uM) Mean % inhibition” value in assay [2] was “X* (Mean or standard deviation are negative but not significantly different from the control to be a growth promoter)”.
On the same counts, the results for `Cc1ccc2oc(-c3cc(NC(=O)Cc4ccccc4)ccc3Cl)nc2c1` [MMV676509] are 56% and 27%.
As to `O=C(Nc1nc(-c2ccccn2)cs1)c1cncn1-c1ccccc1` [MMV676512], the “Crypto (10 uM) Mean % inhibition” value in assay [1] was found to be 93%. The “Giardia (16 uM) Mean % inhibition” value in assay [2] amounted to 10%.
With `O=C(c1cc2ccccc2o1)N1CCN(Cc2ccc3c(c2)OCO3)CC1` [MMV676520], the “Crypto (10 uM) Mean % inhibition” value in assay [1] stood at 51%. In addition, the “Giardia (16 uM) Mean % inhibition” value in assay [2] is listed as 0.776%.
The like results for `Nc1cccnc1Nc1ccc(Cl)cc1` [MMV676524] were, in that order, 83% and 26%.
The like results for `COc1ccc(-c2cc(NC(=O)c3ccc(F)cc3Cl)ccc2OC)cc1` [MMV676526] were, in that order, 46% and 87%.
On the same counts, the results for `Cc1cccc(NC(=O)c2cc(S(=O)(=O)N(C)c3ccc(F)cc3)ccc2Cl)n1` [MMV676528] are 80% and “X* (Mean or standard deviation are negative but not significantly different from the control to be a growth promoter)”.
As to `COCC(C)NC(=O)CSc1ncnc2sc(-c3ccccc3)cc12` (stereo not shown) [MMV676536], the “Crypto (10 uM) Mean % inhibition” value in assay [1] is given as “X* (Mean or standard deviation are negative but not significantly different from the control to be a growth promoter)”. Also, in assay [2], the “Giardia (16 uM) Mean % inhibition” value was 15%.
On the same counts, the results for `O=C(NCCc1c[nH]c2ccccc12)c1cc2ccccc2oc1=O` [MMV676539] are 22% and 7%.
Regarding `COc1ccc(Nc2ccccc2NC(=O)c2ccc(=O)[nH]c2)cc1` [MMV676554], the “Crypto (10 uM) Mean % inhibition” value in assay [1] is recorded as 61%. The “Giardia (16 uM) Mean % inhibition” value in assay [2] is reported as 21%.
On the same counts, the results for `Cc1nnc(NCc2cccc(Cl)c2)c2ccccc12` [MMV676555] are “X* (Mean or standard deviation are negative but not significantly different from the control to be a growth promoter)” and “X* (Mean or standard deviation are negative but not significantly different from the control to be a growth promoter)”.
On to `CC1=NN(c2nc3ccccc3s2)C(=O)C1Cc1cccc2ccccc12` (stereo not shown) [MMV676558], for which the “Crypto (10 uM) Mean % inhibition” value in assay [1] came to 89%. Besides, in assay [2], the “Giardia (16 uM) Mean % inhibition” value worked out at 42%.
The like results for `COc1ccc(-c2nc(-c3cccc(NC(=O)Cc4ccc(F)cc4)c3)no2)cc1OC` [MMV676571] were, in that order, 84% and 6%.
The like results for `O=C(NC1=NCCS1)c1sc2cc(F)ccc2c1Cl` [MMV676584] were, in that order, 69% and 89%.
For `Nc1c2c(nc3sc4c(c13)CCCC4)CCCC2` [MMV676588], in assay [1], the “Crypto (10 uM) Mean % inhibition” value is reported as 48%. Besides, the “Giardia (16 uM) Mean % inhibition” value in assay [2] is given as 26%.
Consider `O=C(CCC1CCCCC1)Nc1cccc(-c2nnc(-c3ccco3)o2)c1` [MMV676589], for which the “Crypto (10 uM) Mean % inhibition” value in assay [1] was 42%. Also, the “Giardia (16 uM) Mean % inhibition” value in assay [2] is recorded as 40%.
With `CCCn1nnc(NC(=O)COc2ccc(C3CCCCC3)cc2)n1` [MMV676597], in assay [1], the “Crypto (10 uM) Mean % inhibition” value is 60%. The “Giardia (16 uM) Mean % inhibition” value in assay [2] is given as 31%.
The like results for `CC(C)(C)n1nc(Cc2cccc3ccccc23)c2c(N)ncnc21` [MMV676599] were, in that order, 86% and 21%.
